Assay [1] concerns the target T1, Alpha-1B adrenergic receptor (Rattus norvegicus) (UniProt P15823).
T1 sequence (whole entry): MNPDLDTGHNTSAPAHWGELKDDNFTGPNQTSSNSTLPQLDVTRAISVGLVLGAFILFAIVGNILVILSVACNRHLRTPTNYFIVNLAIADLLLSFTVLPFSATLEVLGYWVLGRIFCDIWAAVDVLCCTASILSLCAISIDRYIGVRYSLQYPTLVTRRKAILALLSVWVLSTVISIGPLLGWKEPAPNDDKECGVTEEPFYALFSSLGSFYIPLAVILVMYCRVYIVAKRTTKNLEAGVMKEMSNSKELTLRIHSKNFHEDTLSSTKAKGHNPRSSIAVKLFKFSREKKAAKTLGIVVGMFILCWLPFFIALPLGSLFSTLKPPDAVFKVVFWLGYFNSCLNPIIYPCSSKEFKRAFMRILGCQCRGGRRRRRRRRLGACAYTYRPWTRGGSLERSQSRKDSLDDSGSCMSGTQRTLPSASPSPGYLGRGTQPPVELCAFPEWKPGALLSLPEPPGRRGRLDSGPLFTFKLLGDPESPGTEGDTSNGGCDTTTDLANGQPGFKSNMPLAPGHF
The experiment in a line: Antagonist activity at Alpha-1B receptor in Wistar rat spleen assessed as inhibition of (-)-phenylephrine-induced contraction after 30 mins. It counts as functional, tissue-based.

Assay [2] has as its target T2, Alpha-1D adrenergic receptor (Rattus norvegicus) (UniProt P23944).
T2 sequence (whole entry): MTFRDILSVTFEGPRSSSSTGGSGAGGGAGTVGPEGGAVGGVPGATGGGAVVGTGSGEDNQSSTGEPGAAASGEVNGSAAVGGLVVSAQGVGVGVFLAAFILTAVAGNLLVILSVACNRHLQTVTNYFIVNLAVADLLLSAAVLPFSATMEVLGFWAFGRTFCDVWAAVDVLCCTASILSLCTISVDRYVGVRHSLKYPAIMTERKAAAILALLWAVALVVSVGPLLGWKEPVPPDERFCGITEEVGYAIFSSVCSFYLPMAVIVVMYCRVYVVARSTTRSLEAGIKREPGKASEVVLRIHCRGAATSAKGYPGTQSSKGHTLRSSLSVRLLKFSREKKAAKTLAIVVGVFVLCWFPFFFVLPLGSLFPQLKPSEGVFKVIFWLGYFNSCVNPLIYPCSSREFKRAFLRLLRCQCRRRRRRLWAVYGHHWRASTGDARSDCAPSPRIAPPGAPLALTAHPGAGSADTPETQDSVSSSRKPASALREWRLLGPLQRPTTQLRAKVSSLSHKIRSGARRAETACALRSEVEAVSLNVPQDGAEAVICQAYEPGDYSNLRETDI
The experiment in a line: Antagonist activity at Alpha-1D adrenoceptor in Wistar rat endothelium denuded thoracic aorta assessed as inhibition of (-)-noradrenalilne-induced contraction after 30 mins. It counts as functional, tissue-based.

Assay [3] concerns the target T3, Alpha-1B adrenergic receptor (Homo sapiens, UniProt P35368).
T3 sequence (P35368 whole entry): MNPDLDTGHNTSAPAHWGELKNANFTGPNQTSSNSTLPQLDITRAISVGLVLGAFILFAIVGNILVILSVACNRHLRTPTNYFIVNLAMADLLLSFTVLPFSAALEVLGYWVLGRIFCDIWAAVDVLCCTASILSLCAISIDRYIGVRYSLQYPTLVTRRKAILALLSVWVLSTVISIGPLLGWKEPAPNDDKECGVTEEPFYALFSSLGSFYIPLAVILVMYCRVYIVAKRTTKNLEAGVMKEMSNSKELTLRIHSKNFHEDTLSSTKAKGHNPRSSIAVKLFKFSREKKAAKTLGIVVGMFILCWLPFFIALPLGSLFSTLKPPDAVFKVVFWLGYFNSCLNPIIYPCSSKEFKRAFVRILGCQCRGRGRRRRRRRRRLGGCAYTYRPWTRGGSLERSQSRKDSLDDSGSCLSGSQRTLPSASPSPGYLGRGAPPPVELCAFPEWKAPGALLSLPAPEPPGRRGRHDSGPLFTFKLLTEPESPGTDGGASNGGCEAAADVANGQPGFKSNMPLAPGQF
The experiment in a line: biochemical.
Description: Displacement of [3H]prazosin from human recombinant alpha1B adrenoceptor expressed in CHO cells after 30 mins by liquid scintillation counting

Assay [4] addresses T4, Alpha-1D adrenergic receptor (Homo sapiens, UniProt P25100).
T4 sequence (P25100 whole entry): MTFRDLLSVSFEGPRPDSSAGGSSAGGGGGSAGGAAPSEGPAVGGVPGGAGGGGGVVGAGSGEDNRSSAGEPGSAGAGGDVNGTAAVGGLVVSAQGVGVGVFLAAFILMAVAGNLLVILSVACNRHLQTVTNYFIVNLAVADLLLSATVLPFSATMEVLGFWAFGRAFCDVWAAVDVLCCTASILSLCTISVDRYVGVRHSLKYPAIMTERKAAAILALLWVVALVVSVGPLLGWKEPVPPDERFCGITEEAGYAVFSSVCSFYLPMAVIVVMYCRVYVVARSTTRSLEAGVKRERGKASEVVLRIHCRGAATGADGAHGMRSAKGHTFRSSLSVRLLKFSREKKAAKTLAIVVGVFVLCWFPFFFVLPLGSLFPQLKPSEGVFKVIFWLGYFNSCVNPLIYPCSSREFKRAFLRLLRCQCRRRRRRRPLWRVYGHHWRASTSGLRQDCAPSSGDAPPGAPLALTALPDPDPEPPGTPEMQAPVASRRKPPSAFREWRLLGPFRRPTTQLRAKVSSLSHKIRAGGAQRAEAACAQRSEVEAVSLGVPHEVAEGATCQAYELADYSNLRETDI
The experiment in a line: biochemical.
Description: Displacement of [3H]prazosin from human recombinant Alpha-1D adrenoceptor expressed in CHO cells after 30 mins by liquid scintillation counting

Assay [5] deals with T5, 5-hydroxytryptamine receptor 1A (Homo sapiens, UniProt P08908).
T5 sequence (P08908 whole entry): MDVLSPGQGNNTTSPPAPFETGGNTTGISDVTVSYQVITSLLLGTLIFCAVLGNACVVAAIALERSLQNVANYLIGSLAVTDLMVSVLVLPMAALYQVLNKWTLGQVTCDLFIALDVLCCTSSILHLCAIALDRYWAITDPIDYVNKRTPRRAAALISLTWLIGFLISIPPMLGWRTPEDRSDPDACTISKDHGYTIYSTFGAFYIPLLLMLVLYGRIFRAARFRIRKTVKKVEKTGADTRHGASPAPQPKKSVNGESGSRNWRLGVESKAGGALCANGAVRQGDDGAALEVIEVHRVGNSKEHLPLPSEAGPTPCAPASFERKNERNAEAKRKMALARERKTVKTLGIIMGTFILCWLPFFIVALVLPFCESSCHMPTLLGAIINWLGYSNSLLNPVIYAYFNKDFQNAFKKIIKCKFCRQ
As to the kind of experiment: biochemical.

This is an account of results in ChEMBL document CHEMBL1944594, “Synthesis, biological evaluation, and docking studies of tetrahydrofuran- cyclopentanone- and cyclopentanol-based ligands acting at adrenergic α₁- and serotonine 5-HT1A receptors” (J Med Chem, 2012).

Take `O[C@@H]1[C@@H](CNCCOc2ccccc2)CCC1(c1ccccc1)c1ccccc1` (relative stereo): the pKb was found to be 6.67 in assay [1] and 6.86 in assay [2]. Besides, the Ki in assay [3] was 288 nM; in assay [4] it was 93.3 nM; in assay [5], 9.55 nM.
`COc1ccccc1OCCNCC1CCC(c2ccccc2)(c2ccccc2)O1` (stereo not given): the pKb in assay [1] stood at 6.92; in assay [2], 8.09. For the same compound, the Ki in assay [3] was 39.8 nM; in assay [4], 6.31 nM; in assay [5] it was 0.832 nM.
Consider `O=C1C(CNCCOc2ccccc2)CCC1(c1ccccc1)c1ccccc1` (stereo not given), for which the negative-log Kb (pKb) is 6.95 in assay [1] and 6.3 in assay [2]. The Ki was greater than 1000 nM in assay [3], 389 nM in assay [4] and 10.5 nM in assay [5].
With `COc1ccccc1OCCNC[C@H]1CCC(c2ccccc2)(c2ccccc2)[C@@H]1O` (relative stereo), the pKb in assay [1] was found to be 7.7; in assay [2] it was 8.42. The figures for the Ki in assay [3], in assay [4] and in assay [5] were 74.1 nM, 5.75 nM and 0.324 nM, respectively.
The like results for `COc1ccccc1N1CCN(C[C@H]2CCC(c3ccccc3)(c3ccccc3)[C@@H]2O)CC1` were, in that order, 7.14, 6.82, 245 nM, 67.6 nM and 0.794 nM.
In the case of `COc1ccccc1N1CCN(CC2COC(c3ccccc3)(c3ccccc3)O2)CC1` (stereo not given), the pKb amounted to 6.69 in assay [1] and 8.14 in assay [2]. Further, the inhibition constant Ki in assay [3] was 6.76 nM; in assay [4] it was 0.813 nM; in assay [5] it was 22.9 nM.
For `COc1ccccc1OCCNCC1CCC(c2ccccc2)(c2ccccc2)C1=O` (stereo not given), in that order: 6.92, 6.54, greater than 1000 nM, 141 nM and 3.47 nM.
Consider `COc1ccccc1N1CCN(C[C@H]2CCC(c3ccccc3)(c3ccccc3)[C@H]2O)CC1` (relative stereo), for which the values for the pKb in assay [1] and in assay [2] were 7.25 and 7.21, respectively. In addition, the Ki in assay [3] was 166 nM; in assay [4], 67.6 nM; in assay [5], 0.562 nM.
For `O[C@@H]1[C@H](CNCCOc2ccccc2)CCC1(c1ccccc1)c1ccccc1` (relative stereo), the negative logarithm of the Kb (pKb) in assay [1] was 6.26; in assay [2], 6.88. The Ki was greater than 1000 nM in assay [3], greater than 1000 nM in assay [4] and 9.33 nM in assay [5].
